Measurements published in patent publication US20240417342A1, “METHOD FOR PRODUCING GRANULAR COMPOSITION CONTAINING GLUTATHIONE” (KANEKA CORPORATION, priority 2022, published 2024).
Read-outs that look alike come from different tables or passages of the source.

Experiment: Solubility in water at 20° C.
Format: physicochemical
Procedure: Specifically, the percentage can be expressed as the number of grams of the nitrogen-containing fertilizer component that is soluble in 100 ml of water at 20° C.

solubility in water at 20° C. [g/100 mL] | solubility in water at 20° C. (% = g per 100 ml water) [%] | Compound
4.2 | 4.2 | N[C@@H](Cc1c[nH]cn1)C(=O)O [L-histidine]
4.0 | 4.0 | CC[C@H](C)[C@H](N)C(=O)O [L-isoleucine]
0.5 | 0.5 | NC(=O)NC1NC(=O)NC1=O (stereo not drawn) [allantoin]
